Legend:
Assay in all cases: relative viability (nuclei count vs DMSO), 5 days (fraction); higher = more cells survive
[1] = system: NCI-H647; settings: first compound 1 µM
How it was run: (§1)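 Lung cancer cell lines in 1536-well plates got either a single drug or a fixed anchor-drug dose together with five library-drug doses (not always all listed) in √10 steps, by pin tool, on the day after seeding. Nuclei were counted after 5 days, and relative viability is the treated-to-vehicle ratio of nuclei counts. Values are medians of duplicate plates.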

[2] = system: NCI-H23
How it was run: as §1

[3] = system: 201T
How it was run: as §1

[4] = system: NCI-H1395
How it was run: as §1

[5] = system: NCI-H3122
How it was run: as §1

[6] = system: NCI-H441
How it was run: as §1

[7] = system: NCI-H727
How it was run: as §1

[8] = system: NCI-H650
How it was run: as §1

[9] = system: NCI-H522
How it was run: as §1

[10] = system: NCI-H2347
How it was run: as §1

[11] = system: NCI-H838
How it was run: as §1

[12] = system: NCI-H2023
How it was run: as §1

O=c1cc(N2CCOCC2)oc2c(-c3cccc4c3sc3ccccc34)cccc12 + N=C(N)NC(=N)NCCc1ccccc1 [Phenformin] (partner 250 µM)
relative viability [1]: 0.715 | relative viability ([2]; first compound 0.01 µM): 0.83 | relative viability ([2]; first compound 0.03162 µM): 0.801 | relative viability ([2]; first compound 0.3162 µM): 0.792 | relative viability ([2]; first compound 1 µM): 0.806 | relative viability ([3]; first compound 0.01 µM): 0.289 | relative viability ([3]; first compound 0.03162 µM): 0.488 | relative viability ([3]; first compound 0.1 µM): 0.469 | relative viability ([3]; first compound 0.3162 µM): 0.441 | relative viability ([3]; first compound 1 µM): 0.43 | relative viability ([4]; first compound 0.01 µM): 0.435 | relative viability ([4]; first compound 0.03162 µM): 0.45 | relative viability ([4]; first compound 0.1 µM): 0.417 | relative viability ([4]; first compound 0.3162 µM): 0.461 | relative viability ([4]; first compound 1 µM): 0.447 | relative viability ([5]; first compound 0.01 µM): 0.347 | relative viability ([5]; first compound 0.03162 µM): 0.374 | relative viability ([5]; first compound 0.1 µM): 0.38 | relative viability ([5]; first compound 0.3162 µM): 0.36 | relative viability ([5]; first compound 1 µM): 0.396 | relative viability ([6]; first compound 0.01 µM): 0.862 | relative viability ([6]; first compound 0.03162 µM): 0.805 | relative viability ([6]; first compound 0.1 µM): 0.861 | relative viability ([6]; first compound 0.3162 µM): 0.811 | relative viability ([6]; first compound 1 µM): 0.771 | relative viability ([7]; first compound 0.01 µM): 0.645 | relative viability ([7]; first compound 0.03162 µM): 0.546 | relative viability ([7]; first compound 0.1 µM): 0.475 | relative viability ([7]; first compound 0.3162 µM): 0.641 | relative viability ([7]; first compound 1 µM): 0.581 | relative viability ([8]; first compound 0.03162 µM): 0.484 | relative viability ([8]; first compound 0.1 µM): 0.302 | relative viability ([8]; first compound 0.3162 µM): 0.511 | relative viability ([8]; first compound 1 µM): 0.413 | relative viability ([9]; first compound 0.01 µM): 0.724 | relative viability ([9]; first compound 0.03162 µM): 0.662 | relative viability ([9]; first compound 0.1 µM): 0.572 | relative viability ([9]; first compound 0.3162 µM): 0.621 | relative viability ([9]; first compound 1 µM): 0.618 | relative viability ([10]; first compound 0.01 µM): 0.545 | relative viability ([10]; first compound 0.03162 µM): 0.318 | relative viability ([10]; first compound 0.1 µM): 0.376 | relative viability ([10]; first compound 0.3162 µM): 0.419 | relative viability ([10]; first compound 1 µM): 0.317 | relative viability ([11]; first compound 0.01 µM): 0.473 | relative viability ([11]; first compound 0.03162 µM): 0.547 | relative viability ([11]; first compound 0.1 µM): 0.534 | relative viability ([11]; first compound 0.3162 µM): 0.6 | relative viability ([11]; first compound 1 µM): 0.543 | relative viability ([12]; first compound 0.01 µM): 0.424 | relative viability ([12]; first compound 0.03162 µM): 0.397 | relative viability ([12]; first compound 0.1 µM): 0.482 | relative viability ([12]; first compound 0.3162 µM): 0.425 | relative viability ([12]; first compound 1 µM): 0.385

Reference: the supplement of paper PMC10307832
